Test results published in patent publication US20210147932A1, “FLUORESCENT PROBES FOR QUANTIFICATION OF DNA DAMAGE AND REPAIR” (The Board of Trustees of the Leland Stanford Junior …, priority 2019, published 2021).

Assays:
[1] = system: AP-containing single-stranded DNA oligonucleotide (oligonucleotide 18); assay: Reaction of probe with AP-containing single-stranded DNA; type: biochemical
Procedure: FIG. 8 provides representative plot for the reaction of Compound (1) (CCVJ1) with single stranded DNA oligonucleotide 18.
Additional experiments were performed to study the origins of this unusually rapid reaction. […] To test the effect that proximity between the alkoxyamine and planar portion of the probe had on oxime kinetics in our probes, probes were synthesized having variable-length linkers (CCVJ2 and CCVJ3) from aldehyde reactive linkers L2 and L3 respectively (FIG. 2A). […] To test the importance of a double-stranded DNA structure to the rate and fluorescence response, an AP-containing single-stranded DNA oligonucleotide was reacted with CCVJ1. At pH 7, CCVJ1 reacted with a second-order rate constant of 33 M^−1s^−1 with the single-stranded substrate, roughly 5-fold slower than a double-stranded hairpin with identical sequence context (FIG. 8).

[2] = molecular target: T1, NTH1 (Homo sapiens, UniProt P78549); assay: NTH1 coupled assay with 5-hydroxycytosine DNA hairpin; type: biochemical; conditions: NTH1 500 nM, 5hC DNA substrate 60 μM, CCVJ1 20 μM
T1 construct: purchased Novus biologics
T1 sequence (P78549 23-304): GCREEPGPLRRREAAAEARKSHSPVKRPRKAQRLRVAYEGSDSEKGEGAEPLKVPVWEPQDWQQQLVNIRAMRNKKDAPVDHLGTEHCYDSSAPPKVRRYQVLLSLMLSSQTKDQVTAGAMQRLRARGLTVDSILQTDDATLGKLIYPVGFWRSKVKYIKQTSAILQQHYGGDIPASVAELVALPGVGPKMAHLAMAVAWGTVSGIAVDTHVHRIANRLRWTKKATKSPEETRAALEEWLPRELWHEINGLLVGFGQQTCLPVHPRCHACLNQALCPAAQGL
Procedure: FIG. 15, panels A-G provides quantitative coupled assays using Compound (1) (CCJV1). Shown are data from reaction of lesion containing substrates with UNG and SMUG1 (5 nM) (panel A), MPG (100 nM) (panel B), NTH1 (500 nM) (panel C), OGG1 (100 nM) in real-time (panel D) with lesion containing DNA (2 μM) and CCVJ1 (20 μM) (panels A, B and D) or lesion containing DNA (60 μM) and CCVJ1 (20 μM) […]. […] Delay time tss of 25 minutes indicated with dotted line.
FIG. 16 provides time course of NTH1 (500 nM) with 5-hydroxycytosine containing DNA (60 μM) and Compound (1) (CCVJ1) (20 μM). […] Following a 10-minute incubation period, additional substrate was then added (20 μM) which yielded an increase in fluorescence.
Based on the results of our neighboring base effect study, several glycosylase oligonucleotide substrates were purchased or prepared in which the identity of the base lesion X was varied to correspond to the known activities of different target glycosylases (FIG. 15, panel E). For these studies human enzymes SMUG1/UNG, OGG1, MPG and NTH1, were chosen which represent a diverse array of human glycosylases. […] Assays were carried out in a 60 μL volume in a 384 well format on a microplate reader using a fluorescein filter set. For each enzyme, it was possible to observe a robust fluorescence signal (FIG. 15, panels A-D). […]

[3] = Absorption spectra of free and AP site bound probe; type: physicochemical; conditions: in buffer
Source text: FIG. 24 provides normalized absorption spectra of free Compound (1) (CCJV1 probe) and AP site bound probe in buffer. Oxime formation with the AP site red shifts absorption from a λmax of 454 nm in the unbound probe to a λmax of 468 nm in the bound probe. The extinction coefficient calculated for the unbound probe is 30,400 M^−1·cm^−1 and 28,700 M^−1·cm^−1 for the bound probe.
Instrumentation: NMR spectra were acquired on a Varian Inova 400 (400 MHz) or 500 (500 MHz) spectrometer and chemical shift reported in parts per million (6) relative to internal standard TMS (0 ppm). Small molecule mass spectra were measured on a Waters 2795 system via electrospray ionization (ESI) with a ZQ single quadrupole MS. Oligonucleotide mass spectra were acquired by MALDI-TOF using a Bruker Microflex MALDI-TOF in negative ion mode. Ultraviolet spectra were measured on a Cary 300. Fluorescence emission and excitation spectra were recorded on a Jobin Yvon-Spex Fluorolog 3 spectrometer with an external temperature controller. Fluorescence time courses were collected on a Fluoroskan Ascent Microplate Fluorometer (Thermo Fisher Scientific). Oligonucleotide concentrations were determined by UV-absorption on a NanoDrop One Microvolume UV-Vis Spectrophotometer (ThermoFisher Scientific). DNA synthesis was carried out on an Applied Biosystems 394 DNA/RNA synthesizer.

- overall fold change of fluorescence with NTH1 [2]: 20 fold
- absorption λmax, AP site bound probe [3]: 468 nm
- absorption λmax, unbound probe [3]: 454 nm
- extinction coefficient, bound probe [3]: 28,700 M^−1·cm^−1
- extinction coefficient, unbound probe [3]: 30,400 M^−1·cm^−1
SMILES: N#C/C(=C\c1cc2c3c(c1)CCCN3CCC2)C(=O)NCCON [CCVJ1]
- increase in fluorescence on reaction with single-stranded DNA [1]: 4 fold
- rate with single-stranded substrate, slower than double-stranded hairpin of identical sequence context ([1]; pH 7): roughly 5 fold
- second-order rate constant with single-stranded substrate ([1]; pH 7): 33 M⁻¹ s⁻¹
